{"source": "patent US11376249B2", "about": "(priority 2017, dated 2022)", "key": {"[1]": {"assay": "Rat tolerance/dependence study (28 day)"}, "[2]": {"system": "5-HT2 receptor", "set-up": "species or system mice", "settings": "mouse, in vivo, po"}, "[3]": {"biological_target": "D1 (Homo sapiens, UniProt P21728)", "sequence (P21728 whole entry)": "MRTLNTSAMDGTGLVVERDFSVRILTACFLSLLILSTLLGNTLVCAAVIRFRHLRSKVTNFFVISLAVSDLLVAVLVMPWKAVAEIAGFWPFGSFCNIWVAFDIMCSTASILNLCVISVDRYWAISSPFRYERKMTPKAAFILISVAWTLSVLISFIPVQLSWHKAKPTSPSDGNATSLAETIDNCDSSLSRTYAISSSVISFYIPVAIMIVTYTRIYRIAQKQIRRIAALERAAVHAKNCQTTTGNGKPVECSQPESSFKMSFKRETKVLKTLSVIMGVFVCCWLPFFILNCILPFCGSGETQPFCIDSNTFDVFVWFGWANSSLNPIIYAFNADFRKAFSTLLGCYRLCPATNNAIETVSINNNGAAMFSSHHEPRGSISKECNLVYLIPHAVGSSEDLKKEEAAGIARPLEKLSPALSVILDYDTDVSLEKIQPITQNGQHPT", "assay": "biochemical", "settings": "read-out: inhibition D1"}, "[4]": {"biological_target": "D2 (Homo sapiens, UniProt P14416)", "sequence (P14416 whole entry)": "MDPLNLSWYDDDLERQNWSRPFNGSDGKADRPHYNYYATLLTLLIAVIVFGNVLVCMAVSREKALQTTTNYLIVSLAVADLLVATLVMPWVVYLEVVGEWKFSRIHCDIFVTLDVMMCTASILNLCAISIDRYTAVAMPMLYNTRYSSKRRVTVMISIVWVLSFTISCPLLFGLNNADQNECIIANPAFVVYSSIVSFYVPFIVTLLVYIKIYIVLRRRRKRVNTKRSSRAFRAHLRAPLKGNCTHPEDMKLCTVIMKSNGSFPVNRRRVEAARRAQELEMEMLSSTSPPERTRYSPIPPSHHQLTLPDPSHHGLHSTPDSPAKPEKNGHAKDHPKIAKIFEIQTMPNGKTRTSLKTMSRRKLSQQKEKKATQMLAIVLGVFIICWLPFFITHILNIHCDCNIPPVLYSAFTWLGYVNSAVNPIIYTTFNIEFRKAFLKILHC", "assay": "biochemical", "settings": "read-out: inhibition D2"}, "[5]": {"biological_target": "Mu opiate receptor (Homo sapiens, UniProt P35372)", "sequence (P35372 whole entry)": "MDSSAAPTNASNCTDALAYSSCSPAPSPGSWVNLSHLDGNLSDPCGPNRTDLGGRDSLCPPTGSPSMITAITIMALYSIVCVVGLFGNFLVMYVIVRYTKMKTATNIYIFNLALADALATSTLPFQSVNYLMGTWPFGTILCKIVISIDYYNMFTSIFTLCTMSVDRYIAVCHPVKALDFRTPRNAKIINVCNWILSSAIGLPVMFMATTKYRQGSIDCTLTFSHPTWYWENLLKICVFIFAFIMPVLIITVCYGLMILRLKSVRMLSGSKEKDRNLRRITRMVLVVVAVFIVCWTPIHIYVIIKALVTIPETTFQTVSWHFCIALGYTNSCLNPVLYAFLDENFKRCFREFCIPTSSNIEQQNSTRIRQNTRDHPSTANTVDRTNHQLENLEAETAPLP", "assay_type": "binding"}, "[6]": {"system": "NR2B phosphorylation at Tyr1472", "assay": "CNS phosphoprotein profile, NR2B", "assay_type": "in vivo, mice", "settings": "3 mg/kg, 30-60 minutes, nucleus accumbens", "procedure": "(§1) A comprehensive molecular phosphorylation study is also carried out to examine the central nervous system (CNS) profile of the compounds of Example 1 and Example 3. The extent of protein phosphorylation for selected key central nervous system proteins is measured in mice nucleus accumbens.\n(§2) Mice were killed 30 minutes to 2 hours post-injection by focused microwave cranial irradiation, which preserves brain phosphoprotein as it exists at the time of death. The nucleus accumbens was then dissected from each mouse brain, sliced and frozen in liquid nitrogen. Samples were further prepared for phosphoprotein analysis via SDS-PAGE electrophoresis followed by phosphoprotein-specific immunoblotting, as described in Zhu H, et al., Brain Res. 2010 Jun. 25; 1342:11-23. Phosphorylation at each site was quantified, normalized to total levels of the protein (non-phosphorylated), and expressed as percent of the level of phosphorylation in vehicle-treated control mice."}, "[7]": {"system": "ERK2 phosphorylation at Thr183 and Tyr185", "assay": "CNS phosphoprotein profile, ERK2", "assay_type": "in vivo, mice", "settings": "3 mg/kg, nucleus accumbens", "procedure": "as §1, §2"}, "[8]": {"system": "GluR1 phosphorylation at Ser845", "assay": "CNS phosphoprotein profile, GluR1", "assay_type": "in vivo, mice", "settings": "3 mg/kg, nucleus accumbens", "procedure": "as §1, §2"}, "[9]": {"system": "tyrosine hydroxylase phosphorylation at Ser40", "assay": "CNS phosphoprotein profile, TH", "assay_type": "in vivo, mice", "settings": "3 mg/kg, 30 or 60 minutes, nucleus accumbens", "procedure": "as §1, §2"}, "[10]": {"assay": "Mouse marble-burying study (OCD model)", "assay_type": "in vivo, mice", "settings": "20 mg/kg intraperitoneal just prior to test", "description": "The marble burying test is used to measure repetitive and anxiety-related behavior in rodents. It is based on the observation that rats and mice will bury either harmful or harmless objects in their bedding, and it has been used as an animal model to measure the effect of pharmacological interventions in treatment of repetitive behavior disorders, such as OCD.\nMPEP is a selective mGluR5 glutamate receptor antagonist. […] Mice in groups (1) are orally administered the vehicle, and mice in group (4) are given an intraperitoneal injection of MPEP just prior to the start of the test.\nThe test is conducted in rectangular cages with 4-5 cm of wood chip bedding in a room with the window shades lowered and the door closed to minimize distractions. Fifteen clean marbles are evenly spaced on top of the bedding in three rows of five marbles. One mouse is placed in each cage. The mouse and cage is left undisturbed for 30 minutes. At the end of the test, the mouse is removed and the number of marbles buried to at least ⅔ of their depth is counted."}}}
{"smiles": "O=C1CN2c3c(cccc3[C@@H]3CN(CCCOc4ccc(F)cc4)CC[C@@H]32)N1", "note": "[Example 3, (6bR,10aS)-8-(3-(4-fluorophenoxy)propyl)-6b,7,8,9,10,10a-hexahydro-1H-pyrido[3′,4′:4,5]pyrrolo[1,2,3-de]quinoxalin-2(3H)-one]", "values": [{"measurement": "predominant behavioral and physical effects", "setting": "[1]; 0.3 mg/kg, dosing phase", "value": "hunched posture, Straub tail and piloerection"}, {"measurement": "tolerance", "setting": "[1]; 0.3 and 3 mg/kg s.c., 28 days", "value": "does not produce tolerance"}, {"measurement": "effect on body weight, food and water intake or body temperature", "setting": "[1]; 0.3 and 3 mg/kg s.c., on-dose or withdrawal phase", "value": "no significant effect"}, {"measurement": "EC50 for reducing DOI-induced head twitches", "setting": "[2]", "value": 0.44, "unit": "mg/kg"}]}
{"smiles": "CN1CC[C@]23c4c5ccc(O)c4O[C@H]2[C@@H](O)C=C[C@H]3[C@H]1C5", "note": "[Morphine, reference compound]", "values": [{"measurement": "tolerance and dependence", "setting": "[1]; 30 mg/kg orally twice per day", "value": "clear signs of tolerance and dependence"}]}
{"smiles": "CN1CCN2c3c(cccc31)[C@@H]1CN(CCCC(O)c3ccc(F)cc3)CC[C@@H]12", "note": "(stereo partly shown) [Formula B, reference compound]", "values": [{"measurement": "EC50 for reducing DOI-induced head twitches", "setting": "[2]", "value": 0.31, "unit": "mg/kg"}]}
{"smiles": "O=C1CN2c3c(cccc3[C@@H]3CN(CCCC(O)c4ccc(F)cc4)CC[C@@H]32)N1", "note": "(stereo partly drawn) [Example 2, 4-((6bR,10aS)-2-oxo-2,3,6b,9,10,10a-hexahydro-1H,7H-pyrido[3′,4′:4,5]pyrrolo[1,2,3-de]quinoxalin-8-yl)-1-(4-fluoro-phenyl)-butan-1-ol]", "values": [{"measurement": "inhibition at 0.1 µM", "setting": "[3]", "value": 13, "unit": "%"}, {"measurement": "inhibition at […]", "setting": "[4]", "value": 11, "unit": "%"}]}
{"smiles": "CN1CCN2c3c(cccc31)[C@@H]1CN(CCCC(=O)c3ccc(F)cc3)CC[C@@H]12", "note": "[Formula A, reference compound]", "values": [{"measurement": "activity at the Mu opiate receptor", "setting": "[5]", "value": "not active"}]}
{"smiles": "O=C1CN2c3c(cccc3[C@@H]3CN(CCCC(=O)c4ccc(F)cc4)CC[C@@H]32)N1", "note": "[Example 1, 4-((6bR,10aS)-2-oxo-2,3,6b,9,10,10a-hexahydro-1H,7H-pyrido[3′,4′:4,5]pyrrolo[1,2,3-de]quinoxalin-8-yl)-1-(4-fluoro-phenyl)-butan-1-one]", "values": [{"measurement": "effect on NR2B phosphorylation at Tyr1472", "setting": "[6]", "value": "neither the compound of Example 1 nor of Example 3 has a significant effect"}, {"measurement": "ERK2 phosphorylation at Thr183 and Tyr185", "setting": "[7]", "value": "slight decrease"}, {"measurement": "inhibition at […]", "setting": "[4]", "value": 47, "unit": "%"}, {"measurement": "EC50 for reducing DOI-induced head twitches", "setting": "[2]", "value": 0.23, "unit": "mg/kg"}, {"measurement": "GluR1 phosphorylation at Ser845", "setting": "[8]", "value": "slight increase"}, {"measurement": "effect on tyrosine hydroxylase phosphorylation at Ser40", "setting": "[9]", "value": "neither the compound of Example 1 nor of Example 3 has a significant effect"}]}
{"smiles": "Cc1cccc(C#Cc2ccccc2)n1", "note": "[MPEP, 2-methyl-6-(phenylethynyl)pyridine]", "values": [{"measurement": "Marbles Buried", "setting": "[10]", "value": 0.2}]}
